The text below walks through data of article PMC8128204, “Development of 3-methyl/3-(morpholinomethyl)benzofuran derivatives as novel antitumor agents towards non-small cell lung cancer cells” (Journal of Enzyme Inhibition and Medicinal Chemistry, 2021).

The structures appear in SMILES notation. Converted amounts (≈) assume the structure as drawn. Like-named read-outs stand apart in the source and are kept apart here.

Broadly, the IC50 is the concentration that gives 50% inhibition. A higher IC50 goes with weaker potency in that assay. Broadly, the MIC is the least concentration at which growth counts as inhibited. A word on the melting point: it is the temperature of the solid-liquid transition.

For data set [1], the system named is NCI-H23 cells. As to the kind of experiment: MTT anti-proliferative assay, NCI-H23. The class given is cell-based, human. As to conditions: mean ± SD of three experiments. On the procedure:
(§1) The antiproliferative activity of the synthesised derivatives of the 3-methylbenzofuran series (4a–d, 6a–c, 8a–c and 11) and the 3-(morpholinomethyl)benzofuran series (15a–c, 16a–b, 17a–b and 18) was evaluated against non-small cell lung carcinoma (NSCLC) A549 and NCI-H23 cell lines, following the procedures of the MTT assay. […] 1. Anti-proliferative action toward human […] cell lines […]
(§2) The two examined human non-small cell lung carcinoma cell lines (A549 and NCI-H23) have been obtained from American Type Culture Collection (ATCC). The cells were maintained in Dulbecco's modified Eagle's medium (DMEM) supplemented with 10% heat inactivated fetal calf serum (GIBCO), penicillin (100 U/ml) and streptomycin (100 µg/ml) at 37 °C in humidified atmosphere containing 5% CO2. […]
(§3) flask in 5 ml of culture medium. The anti-proliferative activity of the tested 3-methylbenzofurans (4a-d, 6a-c, 8a-c and 11) and 3-(morpholinomethyl)benzofurans (15a-c, 16a-b, 17a-b and 18) measured in vitro using the MTT assay. Briefly, cells were plated out in 96-well microtiter plate (0.5X10^4 cells/well) and incubated for 24 h before treatment with the tested benzofurans to allow cells to attach to the bottom of the well of the plate. Tested benzofuranswere were dissolved in DMSO at 1 mg/ml immediately before use and diluted to the appropriate volume just before addition to the cell culture. […]
(§4) added to the cells (three wells were prepared for each individual dose). Cells were incubated with […]
(§5) At the end of exposure, MTT […]
(§6) solution in PBS (5 mg/ml) was then added to all well including no cell blank and left to incubate for 90 min. The formation of formazan crystals were visually confirmed using phase contract microscopy. DMSO (100 µl/well) was added to dissolve the formazan crystals with shaking for 10 min after which the absorbance was read at 590 nm against no cell blanks on a microplate reader.
(§7) The relation between percent of surviving fraction and log drug concentration is plotted to get the survival curve for each cell line.
For orientation: Tetrazolium assays rely on reduction of a dye to a coloured formazan, in cell work by metabolically active cells.

Data set [2] concerns A549 cells. The experiment in a line: Annexin V-FITC/PI apoptosis assay, A549. As to conditions: A549, at IC50 concentration; control 1.37%. The class given is cell-based, human. On the procedure:
(§8) The apoptotic effect of the three benzofurans (4b, 15a and 16a) was evaluated using Annexin VFITC/PI (AV/PI) dual staining assay to validate if their observed cytotoxic effect is due to non-specific necrosis or physiological apoptosis. […] Moreover, the apoptotic effects of 3-(morpholinomethyl)benzofuran derivatives 15a and 16a were evaluated in NCI-H23 cancer cell line.
(§9) Lung cancer A549 cells were treated with benzofuran 4b, whereas NCI-H23 cells were treated […]
(§10) twice with ice-cold phosphate buffered saline (PBS). Subsequently, the treated cells were collected by centrifugation, fixed in ice-cold 70% (v/v) ethanol, washed with PBS, re-suspended with 100 μg/mL RNase, stained with 40 μg/mL PI, and analyzed by flow cytometry using FACS Calibur (Becton Dickinson, BD, Franklin Lakes, NJ, USA). The cell cycle distributions were calculated using CellQuest software 5.1 (Becton Dickinson).
(§11) 3. Annexin V-FITC Apoptosis Assay […]
(§12) Cells were then rinsed in binding buffer and resuspended in 150 μL of binding buffer with the addition of 1 μL of DAPI (1 μg/μL in PBS). Cells were then analyzed using the flow cytometer BD FACS Canto II and the results were interpreted with FlowJo7.6.4 software (Tree Star, Ashland, 4. VEGFR-2 Kinase Inhibitory Activity […]

Data set [3] deals with M. tuberculosis ATCC 27294. As to the kind of experiment: Microplate Alamar Blue Assay, anti-tubercular activity. The class given is cell-based. As to conditions: MABA, 7 days.
For data set [4], the system named is A549 cells. The experiment in a line: MTT anti-proliferative assay, A549. The class given is cell-based, human. As to conditions: mean ± SD of three experiments. As for the experimental part: as §1, §2, §3, §4, §5, §6, §7
The test system of another data set is WI-38 cell line. As to the kind of experiment: Cytotoxic activity against non-tumorigenic WI-38 cell line. It counts as cell-based, human. As to conditions: for Mean tumour selectivity: S.I. WI-38/A549 and NCI-H23; for IC50: non-tumorigenic human lung WI-38 cell line. The source says: Antiproliferative agents are designed to inhibit the cellular growth of tumour cells selectively, while sparing the normal cells.

The subject of data set [5] is A549 cells. As to the kind of experiment: Cell cycle analysis (PI flow cytometry), A549. It counts as cell-based, human. The following applies: A549, 24 h at IC50 concentration. On the procedure:
as §9
(§13) twice with ice-cold phosphate buffered saline (PBS). Subsequently, the treated cells were collected by centrifugation, fixed in ice-cold 70% (v/v) ethanol, washed with PBS, re-suspended with 100 μg/mL RNase, stained with 40 μg/mL PI, and analyzed by flow cytometry using FACS Calibur (Becton Dickinson, BD, Franklin Lakes, NJ, USA). The cell cycle distributions were calculated using CellQuest software 5.1 (Becton Dickinson). […]
Background: Flow cytometry measures light scatter and fluorescence of single cells or particles in a stream.

A further data set has as its target VEGFR-2 (Homo sapiens, UniProt P35968). The experiment in a line: VEGFR-2 kinase inhibitory assay (VEGFR2(KDR) Kinase Assay Kit).
Data set [6] has as its system NCI-H23 cells. As to the kind of experiment: Annexin V-FITC/PI apoptosis assay, NCI-H23. As to conditions: NCI-H23, at IC50 concentration; control 2.09%. It counts as cell-based, human. As for the experimental part:
as §8, §9, §10, §11, §12

The subject of data set [7] is NCI-H23 cells. The experiment in a line: Cell cycle analysis (PI flow cytometry), NCI-H23. The class given is cell-based, human. As to conditions: NCI-H23, 24 h at IC50 concentration. As for the experimental part: as §9, §13
Setting [8] is: Mycobacterium tuberculosis, ATCC27294, 168 h, read-out: MIC.

VEGFR-2, sequence (P35968 20-1356): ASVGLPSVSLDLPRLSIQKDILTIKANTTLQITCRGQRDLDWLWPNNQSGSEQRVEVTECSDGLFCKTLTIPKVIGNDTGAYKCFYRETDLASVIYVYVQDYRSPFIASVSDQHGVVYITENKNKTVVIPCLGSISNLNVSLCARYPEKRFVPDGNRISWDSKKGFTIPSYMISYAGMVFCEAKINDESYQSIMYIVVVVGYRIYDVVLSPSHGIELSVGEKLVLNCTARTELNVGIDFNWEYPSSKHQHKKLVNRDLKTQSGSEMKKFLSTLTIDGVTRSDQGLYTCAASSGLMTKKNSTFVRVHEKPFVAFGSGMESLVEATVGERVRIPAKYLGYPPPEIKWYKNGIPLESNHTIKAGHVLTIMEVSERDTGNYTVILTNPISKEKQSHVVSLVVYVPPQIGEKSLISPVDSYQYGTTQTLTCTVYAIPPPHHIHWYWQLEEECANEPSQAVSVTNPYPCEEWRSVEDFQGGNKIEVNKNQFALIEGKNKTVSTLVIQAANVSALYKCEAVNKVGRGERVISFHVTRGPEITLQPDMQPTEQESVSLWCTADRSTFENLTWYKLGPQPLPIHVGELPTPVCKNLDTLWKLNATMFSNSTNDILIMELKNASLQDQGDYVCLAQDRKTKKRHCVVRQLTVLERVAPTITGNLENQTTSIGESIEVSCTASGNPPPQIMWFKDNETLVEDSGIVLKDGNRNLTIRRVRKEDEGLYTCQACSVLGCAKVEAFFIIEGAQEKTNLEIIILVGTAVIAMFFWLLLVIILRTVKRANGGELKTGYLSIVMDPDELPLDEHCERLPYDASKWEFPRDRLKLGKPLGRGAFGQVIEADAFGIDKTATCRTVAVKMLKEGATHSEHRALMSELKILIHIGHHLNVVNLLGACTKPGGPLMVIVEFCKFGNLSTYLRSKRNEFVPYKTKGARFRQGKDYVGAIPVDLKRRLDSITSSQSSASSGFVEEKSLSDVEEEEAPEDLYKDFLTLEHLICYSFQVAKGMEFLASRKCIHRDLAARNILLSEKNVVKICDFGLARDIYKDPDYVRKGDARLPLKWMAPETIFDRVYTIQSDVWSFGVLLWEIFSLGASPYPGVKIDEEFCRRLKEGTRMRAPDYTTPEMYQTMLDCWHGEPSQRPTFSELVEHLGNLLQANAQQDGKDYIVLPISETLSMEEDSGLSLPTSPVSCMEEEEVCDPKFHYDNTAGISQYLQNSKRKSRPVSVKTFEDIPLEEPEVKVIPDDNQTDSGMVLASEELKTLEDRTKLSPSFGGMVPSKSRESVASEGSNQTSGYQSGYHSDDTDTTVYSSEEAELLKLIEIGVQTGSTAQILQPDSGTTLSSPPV
From the text for VEGFR-2: CA, USA), according to the manufacturer’s instructions.

Regarding `COc1ccc(NC(=S)NNC(=O)c2oc3ccccc3c2C)cc1` [Compound 4b, N-(4-Methoxyphenyl)-2-(3-methylbenzofuran-2-carbonyl)hydrazine-1-carbothioamide], the melting point was in the range of 190 to 193 °C. The same compound had an IC50 in the data set on NCI-H23 cells [1] (Homo sapiens, NCI-H23, 48 h) of 5.9 ± 0.29 µM. Also, the “apoptosis (total)” value in the data set with A549 cells [2] was found to be 42.05%. Further, the minimum inhibitory concentration (MIC) in data set [3] turned out to be 500 µg/mL (≈ 1410 µM). Further, in data set [3] (setting [8]), the MIC turned out to be 250 µg/mL (≈ 703 µM). This compound yielded an IC50 in the data set on A549 cells [4] (Homo sapiens, A549, 48 h) of 1.48 ± 0.08 µM. In the data set with WI-38 cell line, this compound yielded a Mean tumour selectivity of 5.3 and an IC50 of 19.5 ± 1.18 µM. The “S phase, fold vs control” value in the data set with A549 cells [5] (attenuated) was 0.46 fold. In the data set on A549 cells [5] (augmentation), the “G2/M phase cell population, fold vs control” value turned out to be 2.67 fold and the “sub-G1 phase cell population, fold vs control” value was 21.76 fold. The “G0–G1 phase, fold vs control” value in the data set with A549 cells [5] (reduced) was 0.67 fold. This compound gave an IC50 against VEGFR-2 of 0.078 ± 0.0046 µM.
`COc1cccc(NC(=S)NNC(=O)c2oc3ccccc3c2CN2CCOCC2)c1` [Compound 15a, N-(3-Methoxyphenyl)-2-(3-(morpholinomethyl)benzofuran-2-carbonyl)hydrazine-1-carbothioamide] showed a melting point of 190 to 192 °C. The compound further gave an IC50 in the data set with NCI-H23 cells [1] (48 h) of 2.52 ± 0.13 µM. In the data set with NCI-H23 cells [1] (Homo sapiens, NCI-H23, 48 h), this compound came in with an IC50 of 2.52 ± 0.13 µM. Besides, in [3] (setting [8]), the MIC was 62.5 µg/mL (≈ 142 µM). For the same compound, in the data set with A549 cells [4] (48 h), half-maximal inhibition (IC50) was put at 5.27 ± 0.29 µM. Also, half-maximal inhibition in the data set on A549 cells [4] (Homo sapiens, A549, 48 h) (IC50) required 5.27 ± 0.29 µM. Further, the total apoptosis with NCI-H23 cells [6] is listed as 34.59%. In the data set with WI-38 cell line, this compound came in with a Mean tumour selectivity of 8.4 and an IC50 of 32.8 ± 1.98 µM. The “S phase, fold vs control” value in the data set on NCI-H23 cells [7] (attenuated) amounted to 0.50 fold. Also, in the data set on NCI-H23 cells [7] (augmentation), the “G2/M phase cell population, fold vs control” value stood at 5.33 fold and the “sub-G1 phase cell population, fold vs control” value is recorded as 13.13 fold. The “G0–G1 phase, fold vs control” value in the data set with NCI-H23 cells [7] (reduced) was 0.56 fold. The same compound had a 50% inhibitory concentration (IC50) against VEGFR-2 of 0.133 ± 0.0078 µM.
